What was measured:
Assay in all cases: relative viability (nuclei count vs DMSO), 5 days (fraction); higher = more cells survive
BI-D1870 + Lapatinib = compound: CC(C)CCN1c2nc(Nc3cc(F)c(O)c(F)c3)ncc2N(C)C(=O)C1C [BI-D1870] + CS(=O)(=O)CCNCc1ccc(-c2ccc3ncnc(Nc4ccc(OCc5cccc(F)c5)c(Cl)c4)c3c2)o1 [Lapatinib] (partner 2 µM)
In short: (§1)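 Dosing by pin tool came one day after lung cancer cell lines were seeded in 1536-well plates, using either one drug or a fixed anchor-drug dose plus five library-drug doses (not always all listed) in √10 steps. After 5 days, nuclei were counted on 4× images. Relative viability is treated-well nuclei count divided by vehicle-well nuclei count, and values are medians of duplicate plates.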

Zebularine + Alpelisib = compound: O=c1ncccn1[C@@H]1O[C@H](CO)[C@@H](O)[C@H]1O [Zebularine] + Cc1nc(NC(=O)N2CCC[C@H]2C(N)=O)sc1-c1ccnc(C(C)(C)C(F)(F)F)c1 [Alpelisib] (partner 2 µM)
In short: as §1

BI-D1870 + Pictilisib = compound: CC(C)CCN1c2nc(Nc3cc(F)c(O)c(F)c3)ncc2N(C)C(=O)C1C [BI-D1870] + CS(=O)(=O)N1CCN(Cc2cc3nc(-c4cccc5[nH]ncc45)nc(N4CCOCC4)c3s2)CC1 [Pictilisib] (partner 1 µM)
In short: as §1

Zebularine + Lapatinib = compound: O=c1ncccn1[C@@H]1O[C@H](CO)[C@@H](O)[C@H]1O [Zebularine] + CS(=O)(=O)CCNCc1ccc(-c2ccc3ncnc(Nc4ccc(OCc5cccc(F)c5)c(Cl)c4)c3c2)o1 [Lapatinib] (partner 2 µM)
In short: as §1

Cell Line | relative viability (BI-D1870 + Lapatinib; first compound 0.04 µM) | relative viability (BI-D1870 + Lapatinib; first compound 0.1265 µM) | relative viability (BI-D1870 + Lapatinib; first compound 0.4 µM) | relative viability (BI-D1870 + Lapatinib; first compound 1.265 µM) | relative viability (BI-D1870 + Lapatinib; first compound 4 µM) | relative viability (Zebularine + Alpelisib; first compound 1 µM) | relative viability (Zebularine + Alpelisib; first compound 3.162 µM) | relative viability (Zebularine + Alpelisib; first compound 31.62 µM) | relative viability (Zebularine + Alpelisib; first compound 100 µM) | relative viability (BI-D1870 + Pictilisib; first compound 0.04 µM) | relative viability (BI-D1870 + Pictilisib; first compound 0.1265 µM) | relative viability (BI-D1870 + Pictilisib; first compound 0.4 µM) | relative viability (BI-D1870 + Pictilisib; first compound 1.265 µM) | relative viability (BI-D1870 + Pictilisib; first compound 4 µM) | relative viability (Zebularine + Lapatinib; first compound 1 µM) | relative viability (Zebularine + Lapatinib; first compound 3.162 µM) | relative viability (Zebularine + Lapatinib; first compound 31.62 µM) | relative viability (Zebularine + Lapatinib; first compound 100 µM) | relative viability (Zebularine + Alpelisib; first compound 10 µM) | relative viability (Zebularine + Lapatinib; first compound 10 µM)
NCI-H1437 | 0.899 | 0.686 | 0.76 | 0.802 | 0.653 | 1.16 | 1.03 | 1.14 | 0.319 | 0.418 | 0.348 | 0.415 | 0.408 | 0.389 | 0.925 | 0.934 | 0.787 | 0.333 | – | –
COR-L23 | 1.07 | 0.929 | 0.992 | 0.798 | 0.982 | 0.872 | 0.926 | 0.361 | 0.265 | 1.08 | 0.695 | 0.743 | 0.732 | 0.643 | 1.1 | 0.924 | 0.383 | 0.232 | 0.431 | 0.5
ABC-1 | 1.19 | 0.952 | 1.05 | 1.28 | 1.02 | 1.43 | 1.01 | 0.891 | 0.536 | 0.751 | 0.673 | 0.633 | 0.744 | 0.566 | 1.05 | 1.08 | 0.642 | 0.605 | 0.84 | 0.655
NCI-H838 | 1.13 | 0.942 | 1.1 | 1.24 | 1.02 | 1.04 | 1.05 | 0.857 | 0.404 | 0.442 | 0.421 | 0.529 | 0.498 | 0.574 | 1.19 | 1.14 | 0.834 | 0.382 | 0.707 | 0.632
A549 | 1.16 | 0.875 | 1.06 | 0.908 | 0.992 | 0.923 | 0.658 | 0.625 | 0.317 | 0.725 | 0.499 | 0.369 | 0.465 | 0.0705 | 1.16 | 0.941 | 0.698 | 0.2 | – | 0.438
A-427 | 1.05 | 0.981 | 0.957 | 1.21 | 1.09 | 1.08 | 0.993 | 0.412 | 0.237 | 0.824 | 0.553 | 0.689 | 0.716 | 0.654 | 1.13 | 1.01 | 0.58 | 0.256 | 0.785 | 0.691
NCI-H1792 | 0.926 | 0.953 | 0.881 | 0.967 | 0.794 | 0.8 | 0.622 | 0.215 | 0.316 | 0.248 | 0.274 | 0.24 | 0.297 | 0.227 | 0.978 | 0.879 | 0.428 | 0.284 | 0.514 | 0.416
LCLC-97TM1 | 1.35 | 0.988 | 0.622 | 1.3 | 0.916 | 0.23 | 0.224 | 0.12 | 0.112 | 0.183 | 0.151 | 0.175 | 0.21 | 0.153 | 0.784 | 0.665 | 0.376 | 0.139 | 0.193 | 0.451
NCI-H1703 | 1.07 | 0.732 | 1.29 | 1.11 | 0.796 | 0.311 | 0.337 | 0.325 | 0.353 | 0.256 | 0.245 | 0.234 | 0.213 | 0.209 | 0.994 | 0.979 | 1.52 | 0.952 | 0.307 | –
LCLC-103H | – | – | – | – | – | 1.08 | 0.945 | 0.904 | 0.761 | 0.631 | 0.573 | 0.563 | 0.573 | 0.494 | – | – | – | – | 0.95 | –
PC-3 [JPC-3] | 0.455 | 0.425 | 0.463 | 0.52 | 0.385 | 1.09 | 0.948 | 0.824 | 0.469 | 0.768 | 0.71 | 0.699 | 0.793 | 0.645 | 0.479 | 0.471 | 0.482 | 0.411 | 0.748 | 0.412
BEN | 0.713 | 0.728 | 0.784 | 0.749 | 0.621 | 0.991 | 0.897 | 0.372 | 0.377 | 0.56 | 0.608 | 0.566 | 0.608 | 0.507 | 0.661 | 0.491 | 0.311 | 0.22 | 0.454 | 0.347
NCI-H1666 | 0.825 | 0.543 | 0.639 | 0.909 | 0.383 | 1.16 | 0.984 | 0.932 | 0.618 | 0.655 | 0.442 | 0.409 | 0.584 | 0.321 | 0.561 | 0.57 | 0.667 | 0.593 | 0.852 | 0.49
LC-2-ad | 1.04 | 0.932 | 0.975 | 1.08 | 0.971 | 1.03 | 0.865 | 0.491 | 0.135 | 0.536 | 0.456 | 0.498 | 0.0168 | 0.474 | 1.05 | 0.886 | 0.584 | 0.168 | 0.539 | 0.722
SK-LU-1 | 0.922 | 0.894 | 0.791 | 0.793 | 0.462 | 1.2 | 0.875 | 0.745 | 0.468 | 0.543 | 0.544 | 0.604 | 0.576 | 0.343 | 0.896 | 0.9 | 0.676 | 0.448 | 0.66 | 0.545
ChaGo-K-1 | – | – | – | – | – | – | – | – | – | 0.757 | 0.807 | 0.502 | 0.758 | 0.407 | – | – | – | – | – | –
COR-L 105 | 0.387 | 0.363 | 0.355 | 0.407 | 0.335 | 1.24 | 0.952 | 0.96 | 1.1 | 0.4 | 0.405 | 0.407 | 0.474 | 0.386 | 0.388 | 0.367 | 0.361 | 0.364 | 0.807 | 0.362
NCI-H441 | – | – | – | – | – | 0.779 | 0.73 | 0.271 | 0.264 | 0.498 | 0.374 | 0.518 | 0.466 | 0.492 | – | – | – | – | 0.496 | –
